These are literature values, as cited in patent publication US20130178603A1, “MULTI-MODE CANCER TARGETED NANOPARTICULATE SYSTEM AND A METHOD OF SYNTHESIZING THE SAME” (priority 2012, published 2013).

The conditions of the data set: after I.V administration.

As for `CN(Cc1cnc2nc(N)nc(N)c2n1)c1ccc(C(=O)N[C@@H](CCC(=O)O)C(=O)O)cc1` [MTX, methotrexate], the mean distribution half-life is 1.5 to 3.5 h.
